# Source: patent US20250018014A1, “METHOD FOR TREATING AND/OR PREVENTING REGNASE-1-RELATED DISEASE” (OSAKA UNIVERSITY, priority 2018, published 2025)
# Read-outs that look alike come from different tables or passages of the source. Residues, ends and D or L forms follow the SMILES beside them.
# Key:
# Type in all cases: biochemical
# [1] = molecular target: T1, Reg1_301-599 (amino acids 301-599 of human Regnase-1) phosphorylation by TBK1 (Homo sapiens, UniProt Q5D1E8); assay: Regnase-1 phosphorylation inhibition by compounds (AlphaScreen), TBK1, C-terminal Regnase-1; details: Table 13, read-out: Phosphorylation inhibition Reg1_301-599, 50% inhibition concentration (TBK1)
# T1 construct: made in house; host or cells: Expi293 cells
# T1 sequence (Q5D1E8 301-599): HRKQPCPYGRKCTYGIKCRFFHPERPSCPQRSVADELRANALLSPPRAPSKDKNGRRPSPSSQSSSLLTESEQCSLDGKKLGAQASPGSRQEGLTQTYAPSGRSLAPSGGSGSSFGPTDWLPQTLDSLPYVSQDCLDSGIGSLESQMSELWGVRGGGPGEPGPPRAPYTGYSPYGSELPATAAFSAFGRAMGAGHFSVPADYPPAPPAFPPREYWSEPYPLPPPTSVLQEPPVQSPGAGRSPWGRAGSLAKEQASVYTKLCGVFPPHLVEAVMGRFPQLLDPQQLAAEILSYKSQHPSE
# Procedure: (§1) Among the full-length human Regnase-1 sequence, the 1st to 546th amino acid sequence was prepared and made into a construct having a FLAG tag on the N-terminal side and a biotin ligase BirA recognition sequence on the C-terminal side (herein, a Regnase-1 lacking the C-terminal domain of Regnase-1 (amino acids 547 to 599 in the case of SEQ ID NO: 2) is referred to as “ΔCTD_Reg1”. “ΔCTD_Reg1” is different from “Regnase-1ΔCTD”, which is a C-terminal domain deletion variant resulting from a frameshift mutation caused by a 1 bp deletion at codon 517, as prepared in Example 13). In addition, the sequence from amino acids 301 to 599 of the full-length human Regnase-1 sequence was designated as C-terminal Regnase-1, and a construct having a FLAG tag on the N-terminal side and a recognition sequence for biotin ligase BirA on the C-terminal side was prepared (Reg1_301-599). The above-mentioned Regnase-1 was expressed in mammalian Expi293 cells, purified with FLAG M2 agarose, and isolated by gel filtration chromatography. When biotinylation was required, methods of nonpatent documents (BMC biotechnology, 2008,8,41; and Protein Science, 1999,8,921-929) were used.
# (§2) Using Kinase assay buffer III (manufactured by SignalChem) supplemented with 2 mM DTT, 100 μM sodium vanadate, and 2 mM manganese chloride, kinase (IKKβ (manufactured by SignalChem) or TBK1 (manufactured by SignalChem)) and Regnase-1 were reacted in the presence of 10 μM ATP at room temperature for 2 hours to perform a phosphorylation reaction.
# (§3) Phosphorylated Regnase-1 was detected by the AlphaScreen system. After each of the above-mentioned phosphorylated Regnase-1 antibodies was added and reacted at room temperature for one hour, anti-FLAG AlphaLISA Acceptor Beads (manufactured by PerkinElmer) and Protein A AlphaScreen Donor Beads (manufactured by PerkinElmer) were added, and EnVision (manufactured by PerkinElmer) was used to measure the excited luminescence. As a result, phosphorylated Regnase-1 produced by the phosphorylation reaction by kinase was specifically detected, and signals were confirmed to be enhanced in a manner dependent on Regnase-1 and kinase concentrations (FIG. 24).
# (§4) After mixing 2 nM of the above-mentioned Regnase-1 and the compound, phosphorylated Regnase-1 produced by the phosphorylation reaction was detected by the AlphaScreen system. As the results, the inhibition rate was calculated from the signals obtained when adding the compound at each concentration, by defining the signal obtained with Regnase-1 alone to be 100% inhibition rate, and the signal obtained when the same amount of solvent (DMSO) is added in place of the compound as 0% inhibition rate. The 50% inhibition concentration (μM) was calculated from the obtained dose response curve (Table 11).
# [2] = molecular target: T2, ΔCTD_Reg1 (amino acids 1 to 546 of human Regnase-1) phosphorylation by TBK1 (Homo sapiens, UniProt Q5D1E8); assay: Regnase-1 phosphorylation inhibition by compounds (AlphaScreen), TBK1, CTD-deficient Regnase-1
# T2 construct: made in house; host or cells: Expi293 cells
# T2 sequence (Q5D1E8 1-546): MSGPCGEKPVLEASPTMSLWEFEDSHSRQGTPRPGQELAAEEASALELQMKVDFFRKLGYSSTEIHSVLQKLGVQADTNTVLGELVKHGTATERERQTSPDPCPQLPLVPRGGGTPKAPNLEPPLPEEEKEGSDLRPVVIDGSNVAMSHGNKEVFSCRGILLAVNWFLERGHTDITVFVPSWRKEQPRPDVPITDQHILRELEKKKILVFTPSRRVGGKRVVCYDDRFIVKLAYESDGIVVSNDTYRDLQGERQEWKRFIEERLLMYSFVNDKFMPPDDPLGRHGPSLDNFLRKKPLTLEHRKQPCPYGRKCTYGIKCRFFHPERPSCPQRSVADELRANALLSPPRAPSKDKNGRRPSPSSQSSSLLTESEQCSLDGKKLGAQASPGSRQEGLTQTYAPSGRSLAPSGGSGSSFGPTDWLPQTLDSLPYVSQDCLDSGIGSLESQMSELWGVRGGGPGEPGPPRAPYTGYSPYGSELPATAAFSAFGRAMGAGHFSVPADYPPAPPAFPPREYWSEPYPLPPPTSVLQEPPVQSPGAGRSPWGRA
# From the text: (§5) The full-length sequence of human Regnase-1 (UniProt ID: Q5D1E8) was used to prepare a construct having a FLAG tag on the N-terminal side and a recognition sequence for biotin ligase BirA on the C-terminal side (FL_Reg1) as a target protein. The above-mentioned Regnase-1 was expressed in mammalian Expi293 cells, purified with FLAG M2 agarose, and isolated by gel filtration chromatography. When biotinylation was required, methods from nonpatent documents (BMC biotechnology, 2008,8,41; and Protein Science, 1999,8,921-929) were used.
# as §1, §2, §3, §4
# [3] = molecular target: T3, Reg1_301-599 (amino acids 301-599 of human Regnase-1) phosphorylation by IKKβ (Homo sapiens, UniProt Q5D1E8); assay: Regnase-1 phosphorylation inhibition by compounds (AlphaScreen), IKKβ, C-terminal Regnase-1; details: Table 14, read-out: Phosphorylation inhibition Reg1_301-599, 50% inhibition concentration (IKKβ)
# T3 construct: made in house; host or cells: Expi293 cells
# T3 sequence (Q5D1E8 301-599): T1 sequence (Q5D1E8 301-599)
# From the text: as §5, §1, §2, §3, §4
# [4] = Table 11, 2 nM Regnase-1, AlphaScreen, read-out: 50% inhibition concentration, Regnase-1 phosphorylation, ΔCTD_Reg1, TBK1
# [5] = Table 13, phosphorylation by TBK1, read-out: Phosphorylation inhibition ΔCTD_Reg1, 50% inhibition concentration (TBK1)
SMILES,IC50 [1] [µM],"IC50 [2, 4] [µM]","IC50 [2, 5] [µM]",IC50 [3] [µM]
"CC(C)[C@@H]1NC(=O)[C@H](CCCCN)NC(=O)[C@H](Cc2ccc(O)cc2)NC(=O)[C@H](Cc2c[nH]c3ccccc23)NC(=O)[C@H](CO)NC(=O)[C@H]([C@@H](C)O)NC(=O)[C@H](C)N(C)C(=O)C[C@@H](C(=O)N2CCCC2)NC(=O)[C@H](CCC(N)=O)NC(=O)CNC(=O)[C@H](Cc2c[nH]c3ccccc23)NC(=O)[C@H](CC(N)=O)NC1=O [PP1] (HELM PEPTIDE1{[meA].T.S.W.Y.K.V.N.W.G.Q.D.[C1CCN([*:1])C1]}$PEPTIDE1,PEPTIDE1,1:R1-12:R3$$$V2.0)",> 62.1,> 62.1,> 62.1,> 62.1
"CC[C@H](C)[C@@H]1NC(=O)[C@H](Cc2c[nH]c3ccccc23)NC(=O)[C@H](CCCNC(=N)N)NC(=O)[C@H](Cc2ccccc2)NC(=O)[C@H](CCC(N)=O)NC(=O)[C@H](C)NC(=O)[C@H](Cc2ccccc2)NC(=O)[C@H](CCCCN)NC(=O)[C@H](C)N(C)C(=O)C[C@@H](C(=O)N2CCCC2)NC(=O)[C@@H]2CCCN2C(=O)[C@H](Cc2ccc(O)cc2)NC1=O [PP11] (HELM PEPTIDE1{[meA].K.F.A.Q.F.R.W.I.Y.P.D.[C1CCN([*:1])C1]}$PEPTIDE1,PEPTIDE1,1:R1-12:R3$$$V2.0)",> 62.1,,,> 62.1
"CC[C@H](C)[C@@H]1NC(=O)[C@H](CC(=O)O)NC(=O)[C@H](C)N(C)C(=O)C[C@@H](C(=O)N2CCCC2)NC(=O)[C@H](Cc2ccc(O)cc2)NC(=O)[C@H](CC(=O)O)NC(=O)[C@H](Cc2c[nH]c3ccccc23)NC(=O)[C@H](Cc2ccc(O)cc2)NC(=O)[C@H](CC(=O)O)NC(=O)[C@H](Cc2ccccc2)NC(=O)[C@H](Cc2c[nH]c3ccccc23)NC1=O [PP18] (HELM PEPTIDE1{[meA].D.I.W.F.D.Y.W.D.Y.D.[C1CCN([*:1])C1]}$PEPTIDE1,PEPTIDE1,1:R1-11:R3$$$V2.0)",,,1.8,0.5
"CC[C@H](C)[C@@H]1NC(=O)[C@H](Cc2c[nH]c3ccccc23)NC(=O)[C@@H](Cc2ccccc2)NC(=O)[C@H](CCCCN)NC(=O)[C@H](C)N(C)C(=O)C[C@@H](C(=O)N2CCCC2)NC(=O)[C@H](CCC(=O)O)NC(=O)[C@H](Cc2ccccc2)NC(=O)[C@H](CO)NC(=O)[C@H](Cc2c[nH]cn2)NC(=O)[C@H](Cc2c[nH]cn2)NC1=O [PP20] (HELM PEPTIDE1{[meA].K.[dF].W.I.H.H.S.F.E.D.[C1CCN([*:1])C1]}$PEPTIDE1,PEPTIDE1,1:R1-11:R3$$$V2.0)",> 62.1,,> 62.1,> 62.1
"CC[C@H](C)[C@@H]1NC(=O)[C@H](CO)NC(=O)[C@H](CCCNC(=N)N)NC(=O)[C@H](Cc2ccc(O)cc2)NC(=O)[C@H](Cc2ccc(O)cc2)NC(=O)[C@H](Cc2c[nH]c3ccccc23)NC(=O)[C@H](CO)NC(=O)[C@H](CCC(N)=O)NC(=O)[C@H](Cc2ccc(O)cc2)NC(=O)[C@H](CC(N)=O)NC(=O)[C@H](C)N(C)C(=O)C[C@@H](C(=O)N2CCCC2)NC(=O)[C@H](Cc2c[nH]c3ccccc23)NC1=O [PP10] (HELM PEPTIDE1{[meA].N.Y.Q.S.W.Y.Y.R.S.I.W.D.[C1CCN([*:1])C1]}$PEPTIDE1,PEPTIDE1,1:R1-13:R3$$$V2.0)",0.4,,0.2,1.8
"CC[C@H](C)[C@@H]1NC(=O)[C@H](Cc2c[nH]c3ccccc23)NC(=O)[C@H](CCC(N)=O)NC(=O)[C@H](Cc2ccc(O)cc2)NC(=O)[C@H](C(C)C)NC(=O)[C@H](C)NC(=O)[C@H](Cc2ccc(O)cc2)NC(=O)[C@H](CCCNC(=N)N)NC(=O)[C@H](C)N(C)C(=O)C[C@@H](C(=O)N2CCCC2)NC(=O)[C@@H]2CCCN2C(=O)[C@H](Cc2ccc(O)cc2)NC1=O [PP12] (HELM PEPTIDE1{[meA].R.Y.A.V.Y.Q.W.I.Y.P.D.[C1CCN([*:1])C1]}$PEPTIDE1,PEPTIDE1,1:R1-12:R3$$$V2.0)",19.6,,,20.7
"CC[C@H](C)[C@@H]1NC(=O)[C@H](CCCNC(=N)N)NC(=O)[C@H](Cc2ccc(O)cc2)NC(=O)[C@H](Cc2c[nH]c3ccccc23)NC(=O)[C@H](C)NC(=O)[C@H](CO)NC(=O)[C@H](C)NC(=O)[C@H](Cc2c[nH]cn2)NC(=O)[C@H](CCCCN)NC(=O)[C@@H](C)N(C)C(=O)C[C@@H](C(=O)N2CCCC2)NC(=O)[C@H](Cc2c[nH]c3ccccc23)NC1=O [PP3] (HELM PEPTIDE1{[C[C@H](C(=O)[*:2])N(C)[*:1]].K.H.A.S.A.W.Y.R.I.W.D.[C1CCN([*:1])C1]}$PEPTIDE1,PEPTIDE1,1:R1-12:R3$$$V2.0)",7.1,5.7,,6.8
